# Results reported in patent US20240398784A1, “C-LINKED ISOQUINOLINE AMIDES AS LRRK2 INHIBITORS, PHARMACEUTICAL COMPOSITIONS, AND USES THEREOF” (Merck Sharp & Dohme LLC, priority 2021, published 2024).
# Target: LRRK2 G2019S (Homo sapiens, UniProt Q5S007, G2019S)
# Assay: LRRK2 G2019S Km ATP LanthaScreen assay
# Format: biochemical
# Details: read-out: LRRK2 pIC50 (converted)
# Chain of LRRK2 G2019S (Q5S007 whole entry G2019S): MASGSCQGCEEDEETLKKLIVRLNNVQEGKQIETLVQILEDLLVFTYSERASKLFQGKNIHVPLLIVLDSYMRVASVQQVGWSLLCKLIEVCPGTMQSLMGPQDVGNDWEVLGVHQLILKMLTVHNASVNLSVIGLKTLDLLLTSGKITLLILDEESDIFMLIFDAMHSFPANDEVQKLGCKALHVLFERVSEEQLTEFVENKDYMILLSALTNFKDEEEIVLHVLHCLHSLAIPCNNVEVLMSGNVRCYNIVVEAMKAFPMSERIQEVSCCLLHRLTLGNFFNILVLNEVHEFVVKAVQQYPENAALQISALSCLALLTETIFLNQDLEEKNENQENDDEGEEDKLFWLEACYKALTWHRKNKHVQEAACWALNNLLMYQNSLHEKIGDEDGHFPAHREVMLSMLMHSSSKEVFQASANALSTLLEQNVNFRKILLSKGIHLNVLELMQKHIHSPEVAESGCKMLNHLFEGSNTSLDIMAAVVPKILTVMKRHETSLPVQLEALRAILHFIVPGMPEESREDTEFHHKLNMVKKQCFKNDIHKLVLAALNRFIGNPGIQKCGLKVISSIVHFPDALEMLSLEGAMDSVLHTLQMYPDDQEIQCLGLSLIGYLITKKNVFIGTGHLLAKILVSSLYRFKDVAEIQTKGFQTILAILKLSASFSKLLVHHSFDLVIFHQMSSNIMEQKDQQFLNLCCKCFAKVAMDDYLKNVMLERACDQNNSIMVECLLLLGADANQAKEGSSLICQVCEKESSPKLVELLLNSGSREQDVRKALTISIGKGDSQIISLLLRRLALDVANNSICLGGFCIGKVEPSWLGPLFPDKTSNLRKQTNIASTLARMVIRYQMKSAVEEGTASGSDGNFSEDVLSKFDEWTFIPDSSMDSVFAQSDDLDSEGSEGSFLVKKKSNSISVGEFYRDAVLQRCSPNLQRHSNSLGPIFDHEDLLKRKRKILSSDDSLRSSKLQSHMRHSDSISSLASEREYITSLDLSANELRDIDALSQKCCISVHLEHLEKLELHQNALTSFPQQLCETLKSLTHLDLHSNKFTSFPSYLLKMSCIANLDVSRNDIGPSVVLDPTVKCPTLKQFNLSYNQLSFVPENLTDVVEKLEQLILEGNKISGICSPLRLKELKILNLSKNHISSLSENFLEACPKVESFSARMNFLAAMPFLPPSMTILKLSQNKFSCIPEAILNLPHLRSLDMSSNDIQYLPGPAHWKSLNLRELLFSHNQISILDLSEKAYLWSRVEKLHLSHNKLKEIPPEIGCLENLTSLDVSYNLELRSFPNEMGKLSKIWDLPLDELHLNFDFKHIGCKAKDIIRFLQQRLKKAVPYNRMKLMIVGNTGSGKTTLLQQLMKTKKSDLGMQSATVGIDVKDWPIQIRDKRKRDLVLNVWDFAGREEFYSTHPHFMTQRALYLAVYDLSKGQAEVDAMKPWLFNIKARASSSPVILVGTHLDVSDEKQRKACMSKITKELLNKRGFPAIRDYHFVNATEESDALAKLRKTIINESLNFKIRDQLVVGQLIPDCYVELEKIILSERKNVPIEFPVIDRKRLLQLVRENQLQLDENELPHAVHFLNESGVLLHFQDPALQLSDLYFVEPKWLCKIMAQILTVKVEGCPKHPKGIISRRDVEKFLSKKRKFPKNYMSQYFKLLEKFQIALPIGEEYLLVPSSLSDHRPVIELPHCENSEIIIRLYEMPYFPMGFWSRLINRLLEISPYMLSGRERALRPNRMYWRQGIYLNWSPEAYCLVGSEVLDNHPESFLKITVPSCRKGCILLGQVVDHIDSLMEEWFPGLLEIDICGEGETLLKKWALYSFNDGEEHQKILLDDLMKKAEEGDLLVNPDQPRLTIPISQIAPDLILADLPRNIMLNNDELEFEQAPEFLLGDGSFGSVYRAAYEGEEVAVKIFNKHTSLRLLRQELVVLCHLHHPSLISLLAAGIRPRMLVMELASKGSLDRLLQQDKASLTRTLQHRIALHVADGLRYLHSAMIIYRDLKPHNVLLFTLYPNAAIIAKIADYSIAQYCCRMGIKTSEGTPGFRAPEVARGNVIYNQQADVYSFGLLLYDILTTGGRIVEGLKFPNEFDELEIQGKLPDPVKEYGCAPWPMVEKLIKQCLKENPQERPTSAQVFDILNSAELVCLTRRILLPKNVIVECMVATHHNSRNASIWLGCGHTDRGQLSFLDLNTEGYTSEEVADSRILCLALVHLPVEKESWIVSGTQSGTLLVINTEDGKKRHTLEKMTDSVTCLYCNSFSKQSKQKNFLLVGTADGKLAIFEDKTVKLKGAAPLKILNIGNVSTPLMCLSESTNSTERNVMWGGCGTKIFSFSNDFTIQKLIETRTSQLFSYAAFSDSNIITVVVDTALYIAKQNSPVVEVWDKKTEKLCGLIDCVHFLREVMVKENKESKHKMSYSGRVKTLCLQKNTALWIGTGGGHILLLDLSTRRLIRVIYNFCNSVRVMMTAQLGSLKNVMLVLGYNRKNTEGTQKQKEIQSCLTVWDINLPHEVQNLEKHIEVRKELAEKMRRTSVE
row,Compound,IC50
1,N#CC1(c2ccc3cnc(NC(=O)C4CC4c4ccncc4)cc3c2)CC12CC2 (stereo not shown) [Ex-2.42],2.34 nM
2,"O=C(Nc1cc2cc(C3CCC(N4CC(F)C4)CC3)c(Cl)cc2cn1)C1CC12CCOCC2 (single isomer, unassigned) [Ex-11.5, N-(7-chloro-6-(4-(3-fluoroazetidin-1-yl)cyclohexyl)isoquinolin-3-yl)-6-oxaspiro[2.5]octane-1-carboxamide]",186 nM
3,CC1(N2CCC(c3cc4cc(NC(=O)C5CC5C#N)ncc4cc3Cl)CC2)COC1 (stereo not shown) [Ex-2.8],8.32 nM
4,"O=C(Nc1cc2cc(C3CCN(C4COC4)CC3)c(Cl)cc2cn1)C1CCC1 [Ex-7.4, N-(7-chloro-6-(1-(oxetan-3-yl)piperidin-4-yl)isoquinolin-3-yl)cyclobutanecarboxamide]",5.89 nM
5,Cn1cc(N2CCC(C(=O)Nc3cc4cc(C5(C#N)CC56CC6)ccc4cn3)C2)cn1 (stereo not shown) [Ex-2.76],26.3 nM
6,"COCC(C)c1cc2cc(NC(=O)C3CC3c3ccccn3)ncc2cc1Cl (single isomer, unassigned) [Ex-9.19, N-(7-chloro-6-(1-methoxypropan-2-yl)isoquinolin-3-yl)-2-(pyridin-2-yl)cyclopropane-1-carboxamide]",11 nM
7,CC1(C)CC(C(=O)Nc2cc3cc(C4(C#N)CC45CC5)ccc3cn2)CCO1 (stereo not shown) [Ex-2.57],2.14 nM
8,"CC(C)(O)c1ccc(CC(=O)Nc2cc3cc(C4(C#N)CC45CC5)ccc3cn2)cc1 (single isomer, unassigned) [Ex-1.44, (R or S)-N-(6-(1-cyanospiro[2.2]pentan-1-yl)isoquinolin-3-yl)-2-(4-(2-hydroxypropan-2-yl)phenyl)acetamide]",22.9 nM
9,"CC1OCCC1N1CCC(c2cc3cc(NC(=O)C4CC4)ncc3cc2Cl)CC1 (single isomer, unassigned) [Ex-9.9, N-(7-chloro-6-(1-(2-methyltetrahydrofuran-3-yl)piperidin-4-yl)isoquinolin-3-yl)cyclopropanecarboxamide]",5.62 nM
10,"CC1(C)CC(C(=O)Nc2cc3cc(C4CCC(N5CCC(F)C5)CC4)c(Cl)cc3cn2)CCO1 (single isomer, unassigned) [Ex-5.11, N-(7-chloro-6-(4-(3-fluoropyrrolidin-1-yl)cyclohexyl)isoquinolin-3-yl)-2,2-dimethyltetrahydro-2H-pyran-4-carboxamid]",70.8 nM
11,"CC1C(C(=O)Nc2cc3cc(C4CCN(C5COC5)CC4)c(Cl)cc3cn2)C1(F)F (racemic) [Ex-1.6, Rac-N-(7-chloro-6-(1-(oxetan-3-yl)piperidin-4-yl)isoquinolin-3-yl)-2,2-difluoro-3-methylcyclopropane-1-carboxamide]",1.86 nM
12,"Cc1cc2cnc(NC(=O)C3CC3c3cnn(C)c3)cc2cc1C1CC12CC2 (single isomer, unassigned) [Ex-16.4, 2-(1-methyl-1H-pyrazol-4-yl)-N-(7-methyl-6-(spiro[2.2]pentan-1-yl)isoquinolin-3-yl)cyclopropane-1-carboxamide]",28.8 nM
13,"Cc1nc(C(=O)Nc2cc3cc(C4CCN(C5COC5)CC4)c(Cl)cc3cn2)co1 [Ex-1.37, N-(7-chloro-6-(1-(oxetan-3-yl)piperidin-4-yl)isoquinolin-3-yl)-2-methyloxazole-4-carboxamide]",12.6 nM
14,"Cn1cc(C(=O)Nc2cc3cc(C4(C#N)CC45CC5)ccc3cn2)cn1 (single isomer, unassigned) [Ex-18.15, (R or S)-N-(6-(1-cyanospiro[2.2]pentan-1-yl)isoquinolin-3-yl)-1-methyl-1H-pyrazole-4-carboxamide]",0.631 nM
15,"CN1CCOC(CC(=O)Nc2cc3cc(C4(C#N)CC45CC5)ccc3cn2)C1 (single isomer, unassigned) [Ex-1.47, (R or S)-N-(6-(1-cyanospiro[2.2]pentan-1-yl)isoquinolin-3-yl)-2-(4-methylmorpholin-2-yl)acetamide]",20 nM
16,"O=C(Nc1cc2cc(C3C4CCOCC43)c(Cl)cc2cn1)C1CC12CCOCC2 (single isomer, unassigned) [Ex-9.24, N-(6-(3-oxabicyclo[4.1.0]heptan-7-yl)-7-chloroisoquinolin-3-yl)-6-oxaspiro[2.5]octane-1-carboxamide]",6.61 nM

# Other lines, results leading:
row,IC50,Compound
1,0.0813 nM,"CC1(N2CCC(c3cc4cc(NC(=O)C5CC5c5ccco5)ncc4cc3Cl)CC2)COCC1O (single isomer, unassigned) [Ex-4.66, N-(7-chloro-6-(1-(4-hydroxy-3-methyltetrahydrofuran-3-yl)piperidin-4-yl)isoquinolin-3-yl)-2-(furan-2-yl)cyclopropane-1-carboxamide]"
2,52.5 nM,CC1(c2ccccn2)CC1C(=O)Nc1cc2cc(C3CCN(C4(C)COCC4O)CC3)c(Cl)cc2cn1 (stereo not shown) [Ex-2.90]
3,0.955 nM,"Cc1cc2cnc(NC(=O)C3CC3c3ccccn3)cc2cc1C1CCN(C2(C)CCOC2)CC1 (single isomer, unassigned) [Ex-16.11, N-(7-methyl-6-(1-(3-methyltetrahydrofuran-3-yl)piperidin-4-yl)isoquinolin-3-yl)-2-(pyridin-2-yl)cyclopropane-1-carboxamide]"
4,1.26 nM,"CC(C)(F)C1CC1C(=O)Nc1cc2cc(C3CCN(C4(C)COCC4O)CC3)c(Cl)cc2cn1 (single isomer, unassigned) [Ex-4.48, N-(7-chloro-6-(1-(4-hydroxy-3-methyltetrahydrofuran-3-yl)piperidin-4-yl)isoquinolin-3-yl)-2-(2-fluoropropan-2-yl)cyclopropane-1-carboxamide]"
5,0.302 nM,"Cc1cc2cnc(NC(=O)C3CC4(CC4)C3)cc2cc1C1CCN(C2(C)COCC2O)CC1 (single isomer, unassigned) [Ex-15.2, N-(6-(1-(4-hydroxy-3-methyltetrahydrofuran-3-yl)piperidin-4-yl)-7-methylisoquinolin-3-yl)spiro[2.3]hexane-5-carboxamide]"
6,70.8 nM,"Cc1cc2cnc(NC(=O)C3CC34CCOC4)cc2cc1C1CCN(C2(C)COCC2F)CC1 (single isomer, unassigned) [Ex-15.11, N-(6-(1-(4-fluoro-3-methyltetrahydrofuran-3-yl)piperidin-4-yl)-7-methylisoquinolin-3-yl)-5-oxaspiro[2.4]heptane-1-carboxamide]"
7,18.2 nM,"CCC1C(C(=O)Nc2cc3cc(C4CCN(C5(C)COCC5O)CC4)c(Cl)cc3cn2)C1c1ccccn1 (single isomer, unassigned) [Ex-4.56, N-(7-chloro-6-(1-(4-hydroxy-3-methyltetrahydrofuran-3-yl)piperidin-4-yl)isoquinolin-3-yl)-2-ethyl-3-(pyridin-2-yl)cyclopropane-1-carboxamide]"
8,0.0813 nM,"Cc1cc2cnc(NC(=O)C3CC3c3ccccn3)cc2cc1C1CCN(C2(C)CCOC2)CC1 (single isomer, unassigned) [Ex-16.10, N-(7-methyl-6-(1-(3-methyltetrahydrofuran-3-yl)piperidin-4-yl)isoquinolin-3-yl)-2-(pyridin-2-yl)cyclopropane-1-carboxamide]"
9,257 nM,"CC1(N2CCC(c3cc4cc(NC(=O)C5CC5c5cc(F)ccn5)ncc4cc3Cl)CC2)COCC1O (single isomer, unassigned) [Ex-4.40, N-(7-chloro-6-(1-(4-hydroxy-3-methyltetrahydrofuran-3-yl)piperidin-4-yl)isoquinolin-3-yl)-2-(4-fluoropyridin-2-yl)cyclopropane-1-carboxamide]"
10,1780 nM,"CC1(N2CCC(c3cc4cc(NC(=O)C5CCC5c5ccccn5)ncc4cc3Cl)CC2)COCC1O (single isomer, unassigned) [Ex-4.74, N-(7-chloro-6-(1-(4-hydroxy-3-methyltetrahydrofuran-3-yl)piperidin-4-yl)isoquinolin-3-yl)-2-(pyridin-2-yl)cyclobutane-1-carboxamide]"
11,0.692 nM,"CC1(N2CCC(c3cc4cc(NC(=O)C5CC5c5cncnc5)ncc4cc3Cl)CC2)COCC1O (single isomer, unassigned) [Ex-4.35, N-(7-chloro-6-(1-(4-hydroxy-3-methyltetrahydrofuran-3-yl)piperidin-4-yl)isoquinolin-3-yl)-2-(pyrimidin-5-yl)cyclopropane-1-carboxamide]"
12,0.676 nM,"CC1(N2CCC(c3cc4cc(NC(=O)c5cnn(C67CC(C6)C7)c5)ncc4cc3Cl)CC2)COCC1F (single isomer, unassigned) [Ex-1.53, 1-(bicyclo[1.1.1]pentan-1-yl)-N-(7-chloro-6-(1-((3R,4R or 3S,4S)-4-fluoro-3-methyltetrahydrofuran-3-yl)piperidin-4-yl)isoquinolin-3-yl)-1H-pyrazole-4-carboxamide]"
13,0.676 nM,Cc1cc2cnc(NC(=O)C3C4CCOCC43)cc2cc1C1CCN(C2(C)COCC2O)CC1 (stereo not shown) [Ex-2.52]
14,15.1 nM,"CC1C(C(=O)Nc2cc3cc(C4CCN(C5(C)COCC5O)CC4)c(Cl)cc3cn2)C1c1ccccn1 (single isomer, unassigned) [Ex-4.52, N-(7-chloro-6-(1-(4-hydroxy-3-methyltetrahydrofuran-3-yl)piperidin-4-yl)isoquinolin-3-yl)-2-methyl-3-(pyridin-2-yl)cyclopropane-1-carboxamide]"
15,100 nM,"CC1(N2CCC(c3cc4cc(NC(=O)C5CC(c6ccccn6)C5)ncc4cc3Cl)CC2)COCC1O (single isomer, unassigned) [Ex-4.75, N-(7-chloro-6-(1-(4-hydroxy-3-methyltetrahydrofuran-3-yl)piperidin-4-yl)isoquinolin-3-yl)-3-(pyridin-2-yl)cyclobutane-1-carboxamide]"
16,11 nM,"CC1C(C(=O)Nc2cc3cc(C4CCN(C5(C)COCC5O)CC4)c(Cl)cc3cn2)C12CCOCC2 (single isomer, unassigned) [Ex-10.6, N-(7-chloro-6-(1-(4-hydroxy-3-methyltetrahydrofuran-3-yl)piperidin-4-yl)isoquinolin-3-yl)-2-methyl-6-oxaspiro[2.5]octane-1-carboxamide]"
17,0.214 nM,CC1(N2CCC(c3cc4cc(NC(=O)C5C6COCC65)ncc4cc3Cl)CC2)COCC1O (stereo not shown) [Ex-2.15]
18,0.132 nM,"Cc1cc2cnc(NC(=O)C3CC3c3ccccn3)cc2cc1C1CCN(C2(C)CCOC2)CC1 (single isomer, unassigned) [Ex-16.9, N-(7-methyl-6-(1-(3-methyltetrahydrofuran-3-yl)piperidin-4-yl)isoquinolin-3-yl)-2-(pyridin-2-yl)cyclopropane-1-carboxamide]"
